The text below walks through data of patent publication US20090163577A1, “METHODS AND COMPOSITIONS FOR ANTAGONIZING ANTI-APOPTOTIC Bcl-2-FAMILY PROTEINS” (Burnham Institute for Medical Research, priority 2007, published 2009).

“Also recorded” adds a separate entry of the source.

Data set [1] deals with prostate cancer cell line PPC1. Nature of the data set: Pro-caspase-3 processing, immunoblot, PPC1. It is filed as cell-based. The settings on record: PPC1, 20 hrs, 0 to 10 μM. On the procedure: To determine GA's affect on processing of pro-caspase-3, a marker of apoptosis, cells of the prostate cancer cell line PPC1 were treated with gambogic acid at concentrations from 0 to 10 μM. After 20 hrs, the cells were collected and the cell lysates were analyzed by SDS-PAGE/immunoblotting using anti-caspase 3 antibody. GA induced clearly detectable proteolytic processing of pro-caspase-3 at concentrations≧2 μM.
(In western blotting, separated proteins are transferred to a membrane and probed.)

A further data set has as its target T1, Mcl-1 (Homo sapiens, UniProt Q07820).
T1 construct: lacking their C-terminal transmembrane domains (last 20 amino-acids) (“ΔTM”); made in house; host or cells: E. coli XL-1 Blue (pGEX 4T-1)
Put plainly: FPA competitive FITC-Bid BH3 peptide displacement, Mcl-1. As to conditions: 100 nM GST-Mcl-1, 5 nM FITC-Bid BH3 peptide, read-out: IC50 (μM) for Gambogic acid. It is filed as binding. An excerpt:
(§1) (A) Structure of gambogic acid.
(§2) Fluorescence Polarization Assays (FPAs).
(§3) Competitive Peptide Displacement Assays.

Data set [2] deals with Bax, Bcl-2, transferrin receptor. The settings on record: cited from earlier work.
Data set [3] concerns HL-60 acute promyelomonocytic leukemia. Put plainly: Apoptosis, Annexin V/PI staining, HL-60. It is filed as cell-based. As to conditions: Homo sapiens, HL-60, within 20-24 hrs, read-out: concentration required to induce apoptosis of 50% of the cells. On the procedure:
Gambogic acid was used to treat HL-60 (black symbols) or Jurkat (white symbols) cells at concentrations of 0, 0.1, 0.2, 0.5, 2, 5 μM (from left to right).
Cell Culture, Transfection, and Apoptosis Assays.
GA overcomes cytoprotection of Bcl-2 in leukemia cells. GA has cytotoxic activity against various tumor cell lines in culture and induces apoptosis (Zhang et al., Bioorg. Med. Chem. 12:309-317, 2004; Zhao et al., Biol. Pharm. Bull. 27:998-1003, 2004). We confirmed the apoptosis-inducing activity of GA using Jurkat T-cell acute lymphoblastic leukemia and HL-60 acute promyelomonocytic leukemia cell lines, using Annexin V/propidium iodide (PI) staining, counting Annexin V+/PT− cells as apoptotic (FIG. 3). The concentration of GA required to induce apoptosis of 50% of the cells within 20-24 hrs was ˜0.2 μM and ˜0.5 μM for Jurkat and HL-60, respectively.

The subject of another data set is bax−/− bak−/− MEFs. Put plainly: Cytotoxicity in bax-/- bak-/- MEFs. It is filed as cell-based, mouse. As to conditions: 20 hrs; listed as GA.
The target in the next data set is T2, GST-Bcl-XL (Homo sapiens, UniProt Q07817).
T2 construct: lacking their C-terminal transmembrane domains (last 20 amino-acids) (“ΔTM”); made in house; host or cells: E. coli XL-1 Blue (pGEX 4T-1)
Put plainly: TR-FRET assay, FITC-Bad BH3 peptide binding to GST-Bcl-XL. As to conditions: 10 nM GST-Bcl-XL, 10 nM FITC-Bad BH3 peptide, read-out: apparent IC50, inhibition of FITC-Bad BH3 peptide binding. The procedure:
(A) Binding of GST-Bcl-XL to FITC-BH3 peptide was assayed by TR-FRET. The final reaction mixtures contain 10 nM of FITC-Bad BH3 peptide, 2 nM of anti-GST-Turbium, and various concentrations of GST-Bcl-XL proteins in PBS buffer containing 0.005% Tween 20. (B) Analysis of GA competition with BH3 peptide for Bcl-XL binding by TR-FRET. Reaction mixtures of final 20 μl volume contain 2 μl of various concentrations of GA with 10 nM FITC-Bad BH3 peptide, 2 nM anti-GST-Terbium, and 10 nM GST-Bcl-XL protein in PBS buffer containing 0.005% Tween 20. The mixtures are incubated for 30 min at room temperature. TR-FRET signals were measured using excitation at 330 nm, emission for FITC signal at 490 nm, and emission for terbium signal at 520 nm. Data are presented as 520 nm/490 nm ratio (mean±std dev; n=3).
Time-Resolved-Fluorescence Resonance Energy Transfer (TR-FRET) Assays. For TR-FRET assays, GST-Bcl-XL and anti-GST-terbium (Invitrogen) were mixed together with the FITC-Bad BH3 peptide in PBS containing 0.005% tween 20 in 96 well plates in a total volume of 20 μl per well. […] TR-FRET signals were measured with a SpectraMax M5 plate reader (Molecular Devices) using the following settings: excitation at 330 nm, emission for FITC signal at 490 nm, and emission for terbium signal at 520 nm. […]
(Time-resolved FRET reads energy transfer from a long-lived donor to a nearby acceptor.)

A further data set concerns dividing cells. The settings on record: cited from earlier work.
In a further data set the target is T3, Bcl-B (Homo sapiens, UniProt Q9HD36).
T3 construct: lacking their C-terminal transmembrane domains (last 20 amino-acids) (“ΔTM”); made in house; host or cells: E. coli XL-1 Blue (pGEX 4T-1)
Put plainly: FPA competitive FITC-Bid BH3 peptide displacement, Bcl-B. It is filed as binding. As to conditions: 100 nM GST-Bcl-B, 5 nM FITC-Bid BH3 peptide, read-out: IC50 (μM) for Gambogic acid.
From the text: as §1, §2, §3

In the next data set the target is T4, Bcl-W (Homo sapiens, UniProt Q92843).
T4 construct: lacking their C-terminal transmembrane domains (last 20 amino-acids) (“ΔTM”); made in house; host or cells: E. coli XL-1 Blue (pGEX 4T-1)
Nature of the data set: FPA competitive FITC-Bid BH3 peptide displacement, Bcl-W. The settings on record: 100 nM GST-Bcl-W, 5 nM FITC-Bid BH3 peptide, read-out: IC50 (μM) for Gambogic acid. The data set is classed as binding.
From the text: as §1, §2, §3

In the next data set the test system is BIR3 of XIAP. Put plainly: FPA, rhodamine-SMAC peptide binding to BIR3 of XIAP. The settings on record: not shown.
For the next data set, the target named is T5, Bcl-2 (Homo sapiens, UniProt P10415).
T5 construct: lacking their C-terminal transmembrane domains (last 20 amino-acids) (“ΔTM”); made in house; host or cells: E. coli XL-1 Blue (pGEX 4T-1)
Nature of the data set: FPA competitive FITC-Bid BH3 peptide displacement, Bcl-2. The data set is classed as binding.
From the text: as §1, §2, §3

The conditions of data set [4]: rats; cited from earlier work.
The subject of the next data set is tumor cell lines. As to conditions: tumor cell lines in culture; cited from earlier work.

T5 sequence (P10415 1-219 limits assumed): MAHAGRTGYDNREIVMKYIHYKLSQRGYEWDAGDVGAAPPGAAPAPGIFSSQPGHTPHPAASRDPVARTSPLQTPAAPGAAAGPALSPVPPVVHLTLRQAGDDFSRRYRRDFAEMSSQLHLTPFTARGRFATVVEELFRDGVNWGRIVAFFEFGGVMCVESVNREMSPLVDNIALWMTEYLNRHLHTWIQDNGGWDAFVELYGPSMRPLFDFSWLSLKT
T1 sequence (Q07820 1-330 limits assumed): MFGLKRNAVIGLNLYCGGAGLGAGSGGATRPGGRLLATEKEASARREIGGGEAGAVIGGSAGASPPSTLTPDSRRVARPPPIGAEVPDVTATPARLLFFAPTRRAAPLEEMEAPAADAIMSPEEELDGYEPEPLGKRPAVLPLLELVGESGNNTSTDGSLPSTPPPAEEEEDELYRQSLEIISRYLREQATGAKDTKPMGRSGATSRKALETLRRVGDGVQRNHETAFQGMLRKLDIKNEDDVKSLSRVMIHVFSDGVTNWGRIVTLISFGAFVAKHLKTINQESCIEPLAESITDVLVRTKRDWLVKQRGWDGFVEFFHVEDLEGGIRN
T3 sequence (Q9HD36 1-184 limits assumed): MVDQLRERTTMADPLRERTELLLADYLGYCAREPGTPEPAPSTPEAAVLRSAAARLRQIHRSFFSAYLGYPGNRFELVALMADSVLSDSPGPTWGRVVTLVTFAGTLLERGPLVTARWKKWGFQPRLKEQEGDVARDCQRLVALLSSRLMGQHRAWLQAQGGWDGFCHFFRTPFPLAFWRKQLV
T2 sequence (Q07817 1-213 limits assumed): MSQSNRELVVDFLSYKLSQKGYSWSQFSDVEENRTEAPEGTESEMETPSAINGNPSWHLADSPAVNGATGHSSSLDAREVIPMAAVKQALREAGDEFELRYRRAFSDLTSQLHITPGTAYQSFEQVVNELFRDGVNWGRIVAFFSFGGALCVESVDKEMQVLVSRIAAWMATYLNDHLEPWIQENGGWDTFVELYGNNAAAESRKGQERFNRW
T4 sequence (Q92843 1-173 limits assumed): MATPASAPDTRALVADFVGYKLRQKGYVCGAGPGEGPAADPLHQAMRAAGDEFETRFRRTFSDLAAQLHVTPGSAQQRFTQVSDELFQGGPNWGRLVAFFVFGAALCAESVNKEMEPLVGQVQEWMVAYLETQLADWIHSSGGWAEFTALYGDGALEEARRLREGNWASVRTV

In the case of `CC(C)=CCC[C@]1(C)C=Cc2c(O)c3c(c(CC=C(C)C)c2O1)O[C@]12C(=C[C@@H]4C[C@H]1C(C)(C)O[C@@]2(C/C=C(/C)C(=O)O)C4=O)C3=O` [Gambogic acid], in data set [1], the “concentration giving clearly detectable proteolytic processing of pro-caspase-3” value was not below 2 µM. In addition, the IC50 – broadly, the concentration that inhibits the measured activity by half – on Mcl-1 was 0.79 µM; at GST-Bcl-XL it was 1500 nM; at Bcl-B it was 0.66 µM; at Bcl-W it was 2.02 µM; on Bcl-2 (100 nM GST-Bcl-2, 5 nM FITC-Bid BH3 peptide, read-out: IC50 (μM) for Gambogic acid), 1.21 µM. For the same compound, the Bax protein levels result in [2] is “increases in Bax protein levels”. Besides, the Bcl-2 protein levels entry in data set [2] is “reductions in Bcl-2 protein levels”. Further, in data set [2], the transferrin receptor internalization result is “suppressing transferring receptor internalization”. For the same compound, the EC50 in [3] was approximately 500 nM. The “killing of bax−/− bak−/− MEFs” value with bax−/− bak−/− MEFs is “killed; also recorded: retained cytotoxic activity”. For the same compound, the cell cycle arrest entry in the data set on dividing cells was “induces G2/M-phase arrest”. In the data set on BIR3 of XIAP, the “inhibition of rhodamine-SMAC peptide binding” value is “did not inhibit”. Also, the “sensitivity to displacement of FITC-BH3 peptide among the six proteins” value at Bcl-2 (FIG. 1) is “the least”. In addition, the tolerability entry in [4] is given as “well tolerated”. Also, in the data set with tumor cell lines, the “concentration required for killing 50% of cells (LD50)” value was approximately 1 µM.
